Measured values reported in PMC9773353 (ACS Omega, 2022).
Several values for one entry are separate records, joined by “and”; a condition that tells them apart may be missing. Equal entries are not always repeated.

What was measured:
BHK-21 normal cells = test: MTT cell viability assay, BHK-21 normal cells; format: cell-based; conditions: 100 μM, 24–48 h incubation; for % cell viability ± SD (BHK-21 cells): vs untreated control
HEK-293 T normal cells = test: MTT cell viability assay, HEK-293 T normal cells; format: cell-based; conditions: 100 μM, 24–48 h incubation, MTT; for % cell viability ± SD (HEK-293 T cells): vs untreated control
hCA II = hCA II (Homo sapiens, UniProt P00918); test: Carbonic anhydrase inhibition assay; format: biochemical; conditions: for IC50: IC50 ± SEM hCA II, mean of three independent experiments; for inhibition of hCA-II in words: text grading of Table 4 results
hCA IX = hCA IX (Homo sapiens, UniProt Q16790); test: biochemical
hCA XII = hCA XII (Homo sapiens, UniProt O43570); test: Carbonic anhydrase inhibition assay; format: biochemical
[1] = MTT cell viability assay, HEK-293 T normal cells; format: cell-based; conditions: human, HEK-293 T normal cells; for viability at 100 µM: % cell viability ± SD (HEK-293 T cells), 24–48 h incubation, MTT, vs untreated control

Chain of hCA XII (O43570 25-354): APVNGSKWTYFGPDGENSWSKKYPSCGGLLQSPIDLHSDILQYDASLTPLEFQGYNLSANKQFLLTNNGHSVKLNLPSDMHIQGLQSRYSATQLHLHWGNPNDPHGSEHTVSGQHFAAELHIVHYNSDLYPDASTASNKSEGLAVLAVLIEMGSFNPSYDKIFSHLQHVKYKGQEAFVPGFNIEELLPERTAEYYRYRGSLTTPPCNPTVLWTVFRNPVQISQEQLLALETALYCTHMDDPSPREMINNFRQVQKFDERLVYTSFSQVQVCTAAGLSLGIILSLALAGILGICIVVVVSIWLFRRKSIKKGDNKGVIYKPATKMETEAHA

| IC50 (hCA II) | IC50 (hCA IX) | IC50 (hCA XII) | inhibition of hCA-II in words (hCA II) | Compound | % cytotoxicity ± SD (BHK-21 cells) (BHK-21 normal cells) | % cell viability ± SD (BHK-21 cells) (BHK-21 normal cells) | % cytotoxicity ± SD (HEK-293 T cells) (HEK-293 T normal cells) | % cell viability ± SD (HEK-293 T cells) (HEK-293 T normal cells) | cytotoxicity at 100 µM [1] | viability at 100 µM [1] |
| --- | --- | --- | --- | --- | --- | --- | --- | --- | --- | --- |
|  |  |  |  | 3-(3-(3,4-Dimethoxybenzoyl) thioureido) Benzoic Acid [Compound 21] | 51.5 ± 0.06% | 48 ± 0.1% | 13 ± 0.05% | 86 ± 0.6% |  |  |
| 1190 nM and 1180 nM | 170 ± 50 nM | 2990 ± 320 nM |  | Cc1cc(C)cc(C(=O)Nc2cc(Cl)c(S(N)(=O)=O)cc2S(N)(=O)=O)c1 [Compound 11, N-(5-Chloro-2,4-disulfamoylphenyl)-3,5-dimethylbenzamide] |  |  |  |  | 27 ± 0.06% | 72 ± 0.6% |
|  |  | 580 ± 60 nM | did not show any inhibition | COc1ccc(C(=O)Nc2cc(Cl)c(O)c(Cl)c2)cc1OC [Compound 12, N-(3,5-Dichloro-4-hydroxyphenyl)-3,4-dimethoxybenzamide] |  |  |  |  | 26.6 ± 0.06% | 73 ± 0.1% |
|  | 10400 ± 1450 nM |  |  | Cc1ccc(C(=O)Nc2cccc(C(=O)O)c2)c(C)c1 [Compound 13, 3-(2,4-Dimethylbenzamido) Benzoic Acid] |  |  |  |  | 14 ± 0.09% | 86 ± 0.6% |
| 6490 ± 630 nM |  | 950 ± 80 nM | moderate inhibition | Cc1cc(C)cc(C(=O)Nc2cc([N+](=O)[O-])ccc2Cl)c1 [Compound 14, N-(2-Chloro-5-nitrophenyl)-3,5-dimethylbenzamide] |  |  |  |  | 15 ± 0.4% | 85 ± 0.1% |
| 1930 ± 150 nM |  | 1050 ± 110 nM |  | Cc1cc(C)cc(C(=O)Nc2cc(Br)cc(C(F)(F)F)c2)c1 [Compound 15, N-(3-Bromo-5-(trifluoromethyl)phenyl)-3,5-dimethylbenzamide] |  |  |  |  | 18 ± 0.6% | 82 ± 0.6% |
| 11500 ± 160 nM | 1710 ± 650 nM |  | moderate inhibition | COc1ccc(C(=O)NC(=S)Nc2cc(Cl)c(S(N)(=O)=O)cc2S(N)(=O)=O)cc1OC [Compound 17, N-((5-Chloro-2,4-disulfamoylphenyl)carbamothioyl)-3,4-dimethoxybenzamide] |  |  |  |  | 3 ± 0.04% | 97 ± 0.3% |
| 4170 ± 290 nM | 210 ± 90 nM | 1680 ± 150 nM | moderate inhibition | COc1ccc(C(=O)NC(=S)Nc2ccc(C(=O)O)cc2)cc1OC [Compound 18, 4-(3-(3,4-Dimethoxybenzoyl)thioureido) Benzoic Acid] |  |  |  |  | 24 ± 0.07% | 75% |
| 725 nM and 720 nM | 1010 ± 50 nM |  |  | COc1ccc(C(=O)NC(=S)Nc2c(Cl)cc([N+](=O)[O-])cc2Br)cc1OC [Compound 19, N-((2-Bromo-6-chloro-4-nitrophenyl)carbamothioyl)-3,4-dimethoxybenzamide] |  |  |  |  | 50 ± 0.08% | 49 ± 0.6% |
| 260 ± 30 nM | 4930 ± 1830 nM | 4290 ± 240 nM |  | COc1ccc(C(=O)NC(=S)Nc2cc([N+](=O)[O-])ccc2Cl)cc1OC [Compound 22, N-((2-Chloro-5-nitrophenyl)carbamothioyl)-3,4-dimethoxybenzamide] |  |  |  |  | 9 ± 0.05% | > 90% |
| 1240 ± 960 nM | 1250 ± 20 nM | 9900 ± 660 nM |  | Cc1cc(C)cc(C(=O)NC(=S)Nc2ccccc2O)c1 [Compound 24, N-((2-Hydroxyphenyl)carbamothioyl)-3,5-dimethylbenzamide] |  |  |  |  | 18 ± 0.03% | 81 ± 0.1% |
| 380 ± 10 nM | 9760 ± 1030 nM |  |  | Cc1ccc(C(=O)NC(=S)Nc2ccc(C(=O)O)cc2)c(C)c1 [Compound 25, 4-(3-(2,4-Dimethylbenzoyl)thioureido) Benzoic Acid] |  |  |  |  | 2 ± 0.02% | > 90% |
| 4450 ± 110 nM | 1280 ± 90 nM | 2020 ± 280 nM | moderate inhibition | Cc1cc(C)cc(C(=O)NC(=S)Nc2cc(Cl)c(O)c(Cl)c2)c1 [Compound 26, N-((3,5-Dichloro-4-hydroxyphenyl)carbamothioyl)-3,5-dimethylbenzamide] |  |  |  |  | 2 ± 0.06% | > 90% |
|  |  |  | did not show any inhibition | N-((2-Hydroxyphenyl) carbamothioyl)-3,4-dimethoxybenzamide [Compound 20] | 54.6 ± 0.02% | 45 ± 0.09% | 13 ± 0.03% | 86 ± 0.07% |  |  |
|  |  |  | did not show any inhibition | N-((3-Bromo-5-(trifluoromethyl) phenyl) carbamothioyl)-3,4-dimethoxybenzamide [Compound 23] | 65.0 ± 0.06% |  | 26 ± 0.06% |  |  |  |
